# In patent US5574043A, “Certain [1,2,5-thiadiazol-4-yl]-1-azabicyclo [3.2.1]octane derivatives and their pharmaceutical uses” (Novo Nordisk A/S, priority 1995, dated 1996):
# Where a name gives a salt, the structure may show the parent alone.
# Molecular target: muscarinic acetylcholine receptors
# Assay: Inhibition of specific binding of 3H-Oxotremorine-M (OXO BINDING) in vitro, rat cortex
# Parameters: species or system male Wistar rats
# Details: rat cortex homogenate, 3H-Oxotremorine 1.0 nM, 30 min at 25° C., pH 7.4
# Description: The pharmacological properties of the compounds of the invention can be illustrated by determining their capability to inhibit the specific binding of ^3 H-Oxotremorine-M (^3 H-Oxo). Birdsdall N. J. M., Hulme E. C., and Burgen A. S. V. (1980). "The Character of Muscarinic Receptors in Different Regions of the Rat Brain". Proc. Roy. Soc. London (Series B) 207,1.
# ^3 H-Oxo labels muscarinic receptor in the CNS (with a preference for agonist domains of the receptors). Three different sites are labelled by ^3 H-Oxo. […] Using the present experimental conditions only the high and medium affinity sites are determined.
# The inhibitory effects of compounds on ^3 H-Oxo binding reflects the affinity for muscarinic acetylcholine receptors.
# All preparations are performed at 0°-4° C. unless otherwise indicated. Fresh cortex (0.1-1 g) from male Wistar rats (150-250 g) is homogenized for 5-10 s in 10 ml 20 mM Hepes pH: 7.4, with an Ultra-Turrax homogenizer. The homogenizer, is rinsed with 10 ml of buffer and the combined suspension centrifuged for 15 min at 40,000×g. The pellet is washed three times with buffer. In each step the pellet is homogenized as before in 2×10 ml of buffer and centrifuged for 10 min at 40,000×g.
# The final pellet is homogenized in 20 mM Hepes pH: 7.4 (100 ml per g of original tissue) and used for binding assay. Aliquots of 0.5 ml is added 25 μl of test solution and 25 μl of ^3 H-Oxotremorine (1.0 nM, final concentration) mixed and incubated for 30 min at 25° C. Non-specific binding is determined in triplicate using arecoline (1 μg/ml, final concentration) as the test substance. After incubation samples are added 5 ml of ice-cold buffer and poured directly onto Whatman GF/C glass fibre filters under suction and immediately washed 2 times with 5 ml of ice-cold buffer. The amount of radioactivity on the filters are determined by conventional liquid scintillation counting. Specific binding is total binding minus non specific binding.
# Test substances are dissolved in 10 ml water (if necessary heated on a steam bath for less than 5 minutes) at a concentration of 2.2 mg/ml.
# The test value will be given as IC50 (the concentration (ng/ml) of the test substance which inhibits the specific binding of ^3 H-Oxo by 50%).
# IC50 =(applied test substance concentration) [formula] where Co is specific binding in control assays and Cx is the specific binding in the test assay. (The calculations assume normal mass-action kinetics).
row,Structure (SMILES),Inhibition in vitro OXO BINDING IC50 [ng/mL]
1,"c1ccc(CCCSc2nsnc2[C@H]2CN3CCC[C@H]2C3)cc1 (relative stereo) [Compound 83, Exo-6-(3-(3-phenylpropylthio)-1,2,5-thiadiazol-4-yl)-1-azabicyclo[3.2.1]octane oxalate]",0.43
2,"CCCSc1nsnc1[C@@H]1CN2CC[C@H]1C2 (relative stereo) [Compound 37, Endo:3-(3-propylthio-1,2,5-thiadiazol-4-yl)-1-azabicyclo[2.2.1]heptane oxalate]",2.0
3,"CCOc1nsnc1[C@@H]1CN2CCC[C@@H]1C2 (relative stereo) [Compound 118, Exo-6-(3-ethoxy-1,2,5-thiadiazol-4-yl)-1-azabicyclo[3.2.1]octane oxalate]",0.35
4,"CCc1ccc(COc2nsnc2C2CN3CCC2CC3)cc1.O=C(O)C(=O)O (stereo not drawn) [Compound 109, 3-(3-(4-Ethylbenzyloxy)-1,2,5-thiadiazol-4-yl)-1-azabicyclo[2.2.2]octane oxalate]",4.0
5,"CC(C)CCSc1nsnc1[C@@H]1CN2CCC[C@H]1C2 (relative stereo) [Compound 86, Endo-6-(3-isopentylthio-1,2,5-thiadiazol-4-yl)-1-azabicyclo[3.2.1]octane oxalate]",3.5
6,"CCCCCCOc1nsnc1C1=C(Cl)C2CCCN(C1)C2.Cl (stereo not drawn) [Compound 94, 4-Chloro-3-(3-hexyloxy-1,2,5-thiadiazol-4-yl)-1-azabicyclo[3.3.1]non-3-ene hydrochloride]",12
7,"O=C(O)C(=O)O.OC1(c2nsnc2Cl)CN2CCC1CC2 (stereo not drawn) [Compound 2, 3-(3-Chloro-1,2,5-thiadiazol-4-yl)-3-hydroxy-1-azabicyclo[2.2.2]octane oxalate]",270
8,"CCCCCCOc1nsnc1C1(O)CN2CCC1CC2.O=C(O)C(=O)O (stereo not drawn) [Compound 7, 3-(3-Hexyloxy-1,2,5-thiadiazol-4-yl)-3-hydroxy-1-azabicyclo[2.2.2]octane oxalate]",13
9,"CSc1nsnc1[C@H]1CN2CCC[C@H]1C2 (relative stereo) [Compound 74, Exo-6-(3-methylthio-1,2,5-thiadiazol-4-yl)-1-azabicyclo[3.2.1]octane oxalate]",0.45
10,"N#CCCCSc1nsnc1[C@H]1CN2CCC[C@@H]1C2 (relative stereo) [Compound 91, Endo-6-(3-(3-cyanopropylthio)-1,2,5-thiadiazol-4-yl)-1-azabicyclo[3.2.1]octane oxalate]",5.2
11,"CCCCCCSc1nsnc1[C@H]1CN2CCC[C@@H]1C2 (relative stereo) [Compound 17, Endo-6-(3-hexylthio-1,2,5-thiadiazol-4-yl)-1-azabicyclo[3.2.1]octane oxalate]",3.2
12,"N#CCSc1nsnc1[C@H]1CN2CCC[C@@H]1C2 (relative stereo) [Compound 89, Endo-6-(3-cyanomethylthio-1,2,5-thiadiazol-4-yl)-1-azabicyclo[3.2.1]octane oxalate]",12
13,"c1csc(CCCSc2nsnc2C2CN3CCC2CC3)c1 (stereo not drawn) [Compound 104, 3-(3-(3-(2-Thienyl)propylthio)-1,2,5-thiadiazol-4-yl)-1-azabicyclo[2.2.2]fumarate]",0.85
14,"CCCCCSc1nsnc1[C@@H]1CN2CC[C@H]1C2 (relative stereo) [Compound 33, Endo-3-(3-pentylthio-1,2,5-thiadiazol-4-yl)-1-azabicyclo[2.2.1]heptane fumarate]",6.4
15,"Cc1nnc(SCCCCSc2nsnc2C2CN3CCC2CC3)s1 (stereo not drawn) [Compound 107, oxalate]",0.3
16,"N#CCCCCSc1nsnc1[C@H]1CN2CCC[C@H]1C2 (relative stereo) [Compound 78, Exo-6-(3-(4-cyanobutylthio)-1,2,5-thiadiazol-4-yl)-1-azabicyclo[3.2.1]octane oxalate]",0.30
17,"CCCCCSc1nsnc1[C@H]1CN2CCC[C@@H]1C2 (relative stereo) [Compound 26, Endo-6-(3-pentylthio-1,2,5-thiadiazol-4-yl)-1-azabicyclo[3.2.1]octane oxalate]",1.4

row,Structure (SMILES),Inhibition in vitro OXO BINDING IC50 [ng/mL]
1,"CCCOc1nsnc1[C@@H]1CN2CCC[C@@H]1C2 (relative stereo) [Compound 119, Exo-6-(3-propoxy-1,2,5-thiadiazol-4-yl)-1-azabicyclo[3.2.1]octane oxalate]",0.30
2,"c1ccc(CCCSc2nsnc2[C@H]2CN3CCC[C@@H]2C3)cc1 (relative stereo) [Compound 27, Endo-6-(3-(3-phenylpropylthio)-1,2,5-thiadiazol-4-yl)-1-azabicyclo[3.2.1]octane oxalate]",17
3,"CCCCCCOc1nsnc1C1=CC2CCCN(C1)C2.O=C(O)C(=O)O (stereo not drawn) [Compound 98, 3-(3-Hexyloxy-1,2,5-thiadiazol-4-yl)-1-azabicyclo[3.3.1]non-3-ene oxalate]",1.0
4,"CCCCCCSc1nsnc1[C@H]1CN2CC[C@H]1C2 (relative stereo) [Compound 39, Exo-3-(3-hexylthio-1,2,5-thiadiazol-4-yl)-1-azabicyclo[2.2.1]heptane oxalate]",0.52
5,"CC(C)CCSc1nsnc1[C@H]1CN2CCC[C@H]1C2 (relative stereo) [Compound 77, Exo-6-(3-isopentylthio-1,2,5-thiadiazol-4-yl)-1-azabicyclo[3.2.1]octane]",0.89
6,"Clc1nsnc1[C@@H]1CN2CCC[C@@H]1C2 (relative stereo) [Compound 15, Exo-6-(3-chloro-1,2,5-thiadiazol-4-yl)-1-azabicyclo[3.2.1]octane]",0.61
7,"CCCCCOc1nsnc1C1CN2CCC1CC2.O=C(O)C(=O)O (stereo not drawn) [Compound 50, 3-(3-Pentyloxy-1,2,5-thiadiazol-4-yl)-1-azabicyclo[2.2.2]octane oxalate]",1.0
8,"CCCCSc1nsnc1C1CN2CCC1CC2.O=C(O)/C=C/C(=O)O (stereo not drawn) [Compound 13, 3-(3-Butylthio-1,2,5-thiadiazol-4-yl)-1-azabicyclo[2.2.2]octane fumarate]",0.65
9,"CCSc1nsnc1C1CN2CCC1CC2.O=C(O)C(=O)O (stereo not drawn) [Compound 52, 3-(3-Ethylthio-1,2,5-thiadiazol-4-yl)-1-azabicyclo[2.2.2]octane oxalate]",0.61
10,"CCCCCCCSc1nsnc1C1CN2CCC1CC2.O=C(O)/C=C/C(=O)O (stereo not drawn) [Compound 54, 3-(3-Heptylthio-1,2,5-thiadiazol-4-yl)-1-azabicyclo[2.2.2]octane fumarate]",3.1
11,"CCSc1nsnc1[C@H]1CN2CCC[C@H]1C2 (relative stereo) [Compound 32, Exo-6-(3-ethylthio-1,2,5-thiadiazol-4-yl)-1-azabicyclo[3.2.1]octane oxalate]",0.45
12,"CCOc1nsnc1[C@H]1CN2CCC[C@@H]1C2 (relative stereo) [Compound 20, Endo-6-(3-ethoxy-1,2,5-thiadiazol-4-yl)-1-azabicyclo[3.2.1]octane oxalate]",11
13,"CCCCCCOc1nsnc1[C@@H]1CN2CCC[C@@H]1C2 (relative stereo) [Compound 122, Exo-6-(3-hexyloxy-1,2,5-thiadiazol-4-yl)-1-azabicyclo[3.2.1]octane oxalate]",0.67
14,"N#Cc1ccc(CSc2nsnc2C2CN3CCC2CC3)cc1.O=C(O)C(=O)O (stereo not drawn) [Compound 45, 3-(3-(4-Cyanobenzylthio)-1,2,5-thiadiazol-4-yl)-1-azabicyclo[2.2.2]octane oxalate]",1.6
15,"N#CCCSc1nsnc1[C@H]1CN2CCC[C@H]1C2 (relative stereo) [Compound 80, Exo-6-(3-(2-cyanoethylthio)-1,2,5-thiadiazol-4-yl)-1-azabicyclo[3.2.1]octane oxalate]",0.30
16,"CCCCSc1nsnc1[C@H]1CN2CCC[C@@H]1C2 (relative stereo) [Compound 24, Endo-6-(3-butylthio-1,2,5-thiadiazol-4-yl)-1-azabicyclo[3.2.1]octane oxalate]",0.52
